US6737383B1, “Herbicidal oxadiazolidines” (priority 1999, dated 2004)

How the values were obtained:
bedstraw = assay: Test B pre/postemergence bedstraw; assay type: in vivo, Galium aparine
Summary of the method: (§1)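 Test chemicals in a non-phytotoxic solvent mixture with surfactant were sprayed preemergence onto planted seeds and postemergence onto plants 2 to 18 cm tall (1- to 4-leaf stage). After twelve to sixteen days in a greenhouse, injury was visually rated against untreated controls from 0 (no effect) to 10 (complete control).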

blackgrass = assay: Test B pre/postemergence blackgrass; assay type: in vivo, Alopecurus myosuroides
Summary of the method: as §1

surinam grass = assay: Test B pre/postemergence surinam grass; assay type: in vivo, Brachiaria decumbens
Summary of the method: as §1

cocklebur = assay: Test B pre/postemergence cocklebur; assay type: in vivo, Xanthium strumarium
Summary of the method: as §1

corn = assay: Test B pre/postemergence corn; assay type: in vivo, Zea mays
Summary of the method: as §1

crabgrass = assay: Test B pre/postemergence crabgrass; assay type: in vivo, Digitaria sanguinalis
Summary of the method: as §1

giant foxtail = assay: Test B pre/postemergence giant foxtail; assay type: in vivo, Setaria faberii
Summary of the method: as §1

morningglory = assay: Test B pre/postemergence morningglory; assay type: in vivo, Ipomoea hederacea
Summary of the method: as §1

pigweed = assay: Test B pre/postemergence pigweed; assay type: in vivo, Amaranthus retroflexus
Summary of the method: as §1

rape = assay: Test B pre/postemergence rape; assay type: in vivo, Brassica napus
Summary of the method: as §1

soybean = assay: Test B pre/postemergence soybean; assay type: in vivo, Glycine max
Summary of the method: as §1

sugar beet = assay: Test B pre/postemergence sugar beet; assay type: in vivo, Beta vulgaris
Summary of the method: as §1

velvetleaf = assay: Test B pre/postemergence velvetleaf; assay type: in vivo, Abutilon theophrasti
Summary of the method: as §1

wheat = assay: Test B pre/postemergence wheat; assay type: in vivo, Triticum aestivum
Summary of the method: as §1

wild oat = assay: Test B pre/postemergence wild oat; assay type: in vivo, Avena fatua
Summary of the method: as §1

purple nutsedge = assay: Test B pre/postemergence purple nutsedge; assay type: in vivo, Cyperus rotundus; settings: Rate 62 g/ha
Summary of the method: as §1

[1] = Postemergence, Rate 250 g/ha, scale 0 to 10
[2] = Preemergence, Rate 62 g/ha, scale of 0 to 10 where 0 is no effect and 10 is complete control
[3] = Preemergence, Rate 125 g/ha, scale 0 to 10, 0 is no effect, 10 is complete control
[4] = Preemergence, Rate 250 g/ha, scale 0 to 10, 0 is no effect, 10 is complete control
[5] = Preemergence, Rate 500 g/ha, scale 0 to 10, 0 is no effect, 10 is complete control
[6] = Postemergence, Rate 62 g/ha, scale of 0 to 10, 0 is no effect, 10 is complete control
[7] = Postemergence, Rate 125 g/ha, scale 0 to 10, 0 is no effect, 10 is complete control
[8] = Postemergence, Rate 500 g/ha, scale 0 to 10, 0 is no effect, 10 is complete control
[9] = Preemergence, Rate 500 g/ha, scale of 0 to 10 where 0 is no effect and 10 is complete control

SMILES: CCN(CC)C(=O)Cn1c(=O)on(C(=O)N(c2ccc(F)cc2F)C(C)C)c1=O [Compound 512]
- Bedstraw plant response rating (bedstraw; [1]): 7
- Plant response rating, Bedstraw (bedstraw; [2]): 0
- Bedstraw plant response rating (bedstraw; [3]): 0
- Bedstraw plant response rating (bedstraw; [4]): 0
- Bedstraw plant response rating (bedstraw; [5]): 3
- Blackgrass plant response rating (blackgrass; [6]): 2
- Blackgrass plant response rating (blackgrass; [7]): 3
- Blackgrass plant response rating (blackgrass; [1]): 6
- Plant response rating, Blackgrass (blackgrass; [8]): 6
- Plant response rating, Blackgrass (blackgrass; [2]): 0
- Blackgrass plant response rating (blackgrass; [3]): 2
- Blackgrass plant response rating (blackgrass; [4]): 9
- Blackgrass plant response rating (blackgrass; [9]): 10
- B. signalgrass plant response rating (surinam grass; [6]): 0
- B. signalgrass plant response rating (surinam grass; [7]): 1
- B. signalgrass plant response rating (surinam grass; Postemergence, Rate 250 g/ha, scale 0 to 10, 0 no effect, 10 complete control): 4
- Plant response rating, B. signalgrass (surinam grass; [8]): 5
- Plant response rating, B. signalgrass (surinam grass; [2]): 3
- B. signalgrass plant response rating (surinam grass; [3]): 8
- B. signalgrass plant response rating (surinam grass; [4]): 10
- B. signalgrass plant response rating (surinam grass; [5]): 10
- Cocklebur plant response rating (cocklebur; [6]): 0
- Cocklebur plant response rating (cocklebur; [7]): 2
- Cocklebur plant response rating (cocklebur; [1]): 3
- Plant response rating, Cocklebur (cocklebur; [8]): 7
- Plant response rating, Cocklebur (cocklebur; [2]): 0
- Cocklebur plant response rating (cocklebur; [3]): 0
- Cocklebur plant response rating (cocklebur; [4]): 0
- Cocklebur plant response rating (cocklebur; [9]): 0
- Corn plant response rating (corn; [6]): 0
- Corn plant response rating (corn; [7]): 0
- Corn plant response rating (corn; [1]): 0
- Plant response rating, Corn (corn; [8]): 0
- Plant response rating, Corn (corn; [2]): 0
- Corn plant response rating (corn; [3]): 0
- Corn plant response rating (corn; [9]): 3
- Crabgrass plant response rating (crabgrass; [6]): 2
- Crabgrass plant response rating (crabgrass; [7]): 2
- Crabgrass plant response rating (crabgrass; [1]): 5
- Plant response rating, Crabgrass (crabgrass; [8]): 9
- Plant response rating, Crabgrass (crabgrass; [2]): 3
- Crabgrass plant response rating (crabgrass; [3]): 7
- Crabgrass plant response rating (crabgrass; [9]): 9
- Giant foxtail plant response rating (giant foxtail; [6]): 2
- Giant foxtail plant response rating (giant foxtail; [7]): 3
- Plant response rating, Giant foxtail (giant foxtail; [8]): 8
- Plant response rating, Giant foxtail (giant foxtail; [2]): 5
- Giant foxtail plant response rating (giant foxtail; [3]): 9
- Giant foxtail plant response rating (giant foxtail; [9]): 10
- Morningglory plant response rating (morningglory; [6]): 5
- Morningglory plant response rating (morningglory; [7]): 5
- Plant response rating, Morningglory (morningglory; [8]): 7
- Plant response rating, Morningglory (morningglory; [2]): 0
- Morningglory plant response rating (morningglory; [3]): 0
- Morningglory plant response rating (morningglory; [9]): 0
- Redroot pigweed plant response rating (pigweed; [6]): 1
- Redroot pigweed plant response rating (pigweed; [7]): 7
- Plant response rating, Redroot pigweed (pigweed; [8]): 9
- Plant response rating, Redroot pigweed (pigweed; [2]): 3
- Redroot pigweed plant response rating (pigweed; [3]): 9
- Redroot pigweed plant response rating (pigweed; [9]): 10
- Rape plant response rating (rape; [6]): 0
- Rape plant response rating (rape; [7]): 0
- Plant response rating, Rape (rape; [8]): 0
- Plant response rating, Rape (rape; [2]): 0
- Rape plant response rating (rape; [3]): 0
- Rape plant response rating (rape; [9]): 5
- Soybean plant response rating (soybean; [6]): 4
- Soybean plant response rating (soybean; [7]): 4
- Plant response rating, Soybean (soybean; [8]): 7
- Plant response rating, Soybean (soybean; [2]): 0
- Soybean plant response rating (soybean; [3]): 0
- Soybean plant response rating (soybean; [9]): 0
- Sugarbeets plant response rating (sugar beet; [6]): 0
- Sugarbeets plant response rating (sugar beet; [7]): 0
- Plant response rating, Sugarbeets (sugar beet; [8]): 7
- Plant response rating, Sugarbeets (sugar beet; [2]): 0
- Sugarbeets plant response rating (sugar beet; [3]): 0
- Sugarbeets plant response rating (sugar beet; [9]): 5
- Velvetleaf plant response rating (velvetleaf; [6]): 0
- Velvetleaf plant response rating (velvetleaf; [7]): 0
- Plant response rating, Velvetleaf (velvetleaf; [8]): 1
- Plant response rating, Velvetleaf (velvetleaf; [2]): 0
- Velvetleaf plant response rating (velvetleaf; [3]): 0
- Velvetleaf plant response rating (velvetleaf; [9]): 0
- Wheat plant response rating (wheat; [6]): 0
- Wheat plant response rating (wheat; [7]): 0
- Plant response rating, Wheat (wheat; [8]): 2
- Plant response rating, Wheat (wheat; [2]): 0
- Wheat plant response rating (wheat; [3]): 2
- Wheat plant response rating (wheat; [9]): 6
- Wild oats plant response rating (wild oat; [6]): 0
- Wild oats plant response rating (wild oat; [7]): 0
- Plant response rating, Wild oats (wild oat; [8]): 1
- Plant response rating, Wild oats (wild oat; [2]): 2
- Wild oats plant response rating (wild oat; [3]): 2
- Wild oats plant response rating (wild oat; [9]): 10
- Nutsedge plant response rating (purple nutsedge; Postemergence, scale of 0 to 10, 0 is no effect, 10 is complete control): 0
- Plant response rating, Nutsedge (purple nutsedge; Preemergence, scale of 0 to 10 where 0 is no effect and 10 is complete control): 0
